{"source": "paper PMC12765074", "about": "“Mechanistic insights into enterocin C targeting the undecaprenyl phosphate recycling protein BacA” (The Journal of Biological Chemistry, 2025)", "test_system": "EntC1", "experiment": "ITC, EntC1", "type": "binding", "settings": "titration of EntC2 with EntC1", "data": [{"smiles": "CC[C@H](C)[C@H](NC(=O)CNC(=O)[C@H](CCCCN)NC(=O)[C@H](C)NC(=O)[C@H](CC(C)C)NC(=O)CNC(=O)[C@H](C)NC(=O)[C@@H](NC(=O)[C@H](Cc1ccccc1)NC(=O)[C@H](CC(=O)O)NC(=O)[C@H](Cc1ccc(O)cc1)NC(=O)[C@H](C)NC(=O)[C@@H]1CCCN1C(=O)[C@H](CCC(N)=O)NC(=O)[C@H](CC(C)C)NC(=O)[C@H](Cc1c[nH]c2ccccc12)NC(=O)[C@@H]1CCCN1C(=O)[C@H](CC(C)C)NC(=O)[C@H](Cc1c[nH]c2ccccc12)NC(=O)[C@H](CCCCN)NC(=O)CNC(=O)[C@@H]1CCCN1C(=O)CN)C(C)C)C(=O)NCC(=O)N[C@@H](CCCCN)C(=O)N[C@@H](CCC(=O)O)C(=O)NCC(=O)N[C@@H](CC(N)=O)C(=O)N[C@@H](CCCCN)C(=O)N[C@@H](CC(N)=O)C(=O)N[C@@H](CCCCN)C(=O)N[C@@H](Cc1c[nH]c2ccccc12)C(=O)N[C@@H](CCCCN)C(=O)N[C@@H](CC(N)=O)C(=O)N[C@H](C(=O)O)C(C)C", "note": "(single isomer, unassigned) [EntC2]", "values": [{"measurement": "binding to EntC1 (ITC)", "value": "No binding"}]}]}
